pEC50, pIC50: −log10 of the molar value. ≈ marks a conversion by molar mass, not a printed value.
Tests used:
[1] = Cytotoxicity against human A549 cells assessed as cell growth inhibition measured after 24 hrs by MTT assay; assay type: functional, cell-based
[2] = test system: HL-60; assay: Cytotoxicity against human HL-60 cells assessed as reduction in cell viability incubated for 48 hrs by MTT assay; assay type: functional, cell-based; details: HL-60, 48 h
[3] = test system: SW480; assay: Cytotoxicity against human SW480 cells assessed as cell growth inhibition; assay type: functional, cell-based
[4] = test system: MCF7; assay: Cytotoxicity against human MCF7 cells assessed as reduction in cell growth; assay type: functional, cell-based
[5] = test system: SMMC-7721; assay: Cytotoxicity against human SMMC-7721 cells assessed as reduction in cell viability incubated for 48 hrs by MTT assay; assay type: functional, cell-based; details: SMMC-7721, 48 h
[6] = test system: K562; assay: Antiproliferative activity against human K562 cells assessed as cell growth inhibition by MTT assay; assay type: functional, cell-based
[7] = test system: A549; assay: Antiproliferative activity against human A549 cells assessed as reduction in cell viability by MTT assay; assay type: functional, cell-based
[8] = test system: MCF7; assay: Cytotoxicity against human MCF7 cells assessed as reduction in cell viability after 48 hrs by SRB assay; assay type: functional, cell-based; details: MCF7, 48 h
[9] = test system: MCF7; assay: Cytotoxicity against human MCF7 cells assessed as reduction in cell viability by MTS assay; assay type: functional, cell-based
[10] = test system: HCT-116; assay: Cytotoxicity against human HCT-116 cells assessed as reduction in cell viability by MTS assay; assay type: functional, cell-based
[11] = test system: HeLa; assay: Cytotoxicity against human HeLa cells assessed as reduction in cell viability; assay type: functional, cell-based
[12] = target: Alpha glucosidase (Homo sapiens, UniProt O43451+P10253+P14410+Q2M2H8); assay: Inhibition of alpha glucosidase (unknown origin) measured after 60 mins; assay type: protein assay
[13] = test system: HeLa; assay: Antiproliferative activity against human HeLa cells assessed as reduction in cell growth; assay type: functional, cell-based
[14] = test system: MCF7; assay: Antiproliferative activity against human MCF7 cells assessed as reduction in cell viability incubated for 120 hrs by MTT assay; assay type: functional, cell-based; details: MCF7, 120 h
[15] = test system: Staphylococcus aureus; assay: Antibacterial activity against Staphylococcus aureus ATCC 29213 assessed as reduction in microbial growth; assay type: functional
[16] = test system: Staphylococcus aureus; assay: Antibacterial activity against Staphylococcus aureus […] assessed as reduction in microbial growth; assay type: functional
[17] = test system: Enterococcus faecalis; assay: Antibacterial activity against Enterococcus faecalis assessed as reduction in bacterial growth; assay type: functional
[18] = test system: Staphylococcus aureus; assay: Antibacterial activity against methicillin-resistant Staphylococcus aureus assessed as reduction in microbial growth; assay type: functional
[19] = test system: Acinetobacter baumannii; assay: Antibacterial activity against Acinetobacter baumannii assessed as reduction in bacterial growth by broth microdilution method; assay type: functional
[20] = test system: Escherichia coli; assay: Antibacterial activity against Escherichia coli assessed as reduction in bacterial growth by broth microdilution method; assay type: functional
[21] = test system: A549; assay: Antiproliferative activity against human A549 cells assessed as reduction in cell viability incubated for 48 hrs by MTT assay; assay type: functional, cell-based; details: A549, 48 h
[22] = test system: MCF7; assay: Antiproliferative activity against human MCF7 cells assessed as inhibition of cell growth after overnight incubation by MTT assay; assay type: functional, cell-based
[23] = test system: HT-29; assay: Antiproliferative activity against human HT-29 cells assessed as inhibition of cell proliferation by MTT assay; assay type: functional, cell-based
[24] = test system: HeLa; assay: Antiproliferative activity against human HeLa cells assessed as inhibition of cell growth incubated for 72 hrs by MTT assay; assay type: functional, cell-based
[25] = test system: Bel-7402; assay: Cytotoxicity against human Bel-7402 cells assessed as reduction in cell viability measured after 72 hrs by MTT assay; assay type: functional, cell-based; details: Bel-7402, 72 h
[26] = Antioxidant activity assessed as DPPH radical scavenging activity measured after 30 mins; assay type: functional
[27] = test system: MDA-MB-453; assay: Antiproliferative activity against human MDA-MB-453 cells assessed as reduction in cell growth after 72 hrs by MTT assay; assay type: functional, cell-based; details: MDA-MB-453, 72 h
[28] = test system: CAMA-1; assay: Antiproliferative activity against human CAMA-1 cells assessed as cell growth inhibition; assay type: functional, cell-based
[29] = test system: CCRF-CEM; assay: Growth inhibition of human CCRF-CEM cells; assay type: functional
[30] = test system: RPMI-8226; assay: Growth inhibition of human RPMI-8226 cells; assay type: functional
[31] = test system: Aspergillus niger; assay: […] against Aspergillus niger assessed as […] incubated for 24 hrs by agar disc diffusion assay; assay type: functional
[32] = test system: Candida albicans; assay: Antibacterial activity against Candida albicans assessed as reduction in bacterial growth; assay type: functional
[33] = test system: Klebsiella pneumoniae; assay: Antibacterial activity against Klebsiella pneumoniae assessed as reduction in bacterial growth by broth microdilution method; assay type: functional
[34] = test system: Fusarium oxysporum; assay: Antifungal activity against Fusarium oxysporum assessed as inhibition of fungal growth; assay type: functional
[35] = test system: Staphylococcus aureus; assay: Antibacterial activity against Staphylococcus aureus assessed as reduction in microbial growth; assay type: functional
[36] = test system: Bacillus subtilis; assay: Antibacterial activity against Bacillus subtilis assessed as reduction in microbial growth; assay type: functional
[37] = test system: Escherichia coli; assay: Antibacterial activity against Escherichia coli assessed as reduction in bacterial cell viability; assay type: functional

COC(=O)C1=CO[C@@H](OC)[C@@H]2C(C(NCCc3c[nH]c4ccccc34)NCCc3c[nH]c4ccccc34)=CC[C@H]12
pIC50 [1]: 5.44
pIC50 [2]: 6.05
pIC50 [3]: 5.60
pIC50 [4]: 5.51
pIC50 [5]: 5.45

COc1cc([C@@H]2c3cc4c(cc3[C@H](OC(=O)c3ccc5cc[nH]c5c3)[C@H]3COC(=O)[C@H]23)OCO4)cc(OC)c1OC
pIC50 [6]: 7.00

COc1ccc2[nH]c(C(=O)OC3O[C@@H]4O[C@@]5(C)CC[C@H]6[C@H](C)CC[C@@H]([C@H]3C)[C@@]46OO5)cc2c1 (some centres undefined)
pIC50 [7]: 4.87
pIC50 [8]: 4.84

C=C1CC[C@H]2[C@@](C)(Cc3c([nH]c4ccccc34)[C@@]2(C)COC(C)=O)[C@@H]1C/C=C1\C=COC1=O
pIC50 [9]: 5.73
pIC50 [10]: 5.91

COc1ccc(/C=C\c2cc(OC)c(OC)c(OC)c2)cc1O [COMBRETASTATIN A4]
pIC50 [11]: 6.68

C=C(C)[C@@H]1CC[C@]2(C(=O)NCC(=O)O)CC[C@]3(C)[C@H](CC[C@@H]4[C@@]5(C)Cc6c([nH]c7ccccc67)C(C)(C)[C@@H]5CC[C@]43C)[C@@H]12
IC50 [12]: 1800 nM

C=C(C)[C@@H]1CC[C@]2(C(=O)O)CC[C@]3(C)[C@H](CC[C@@H]4[C@@]5(C)Cc6c([nH]c7ccccc67)C(C)(C)[C@@H]5CC[C@]43C)[C@@H]12
IC50 [12]: 40 nM

COc1ccc2[nH]cc(C(=O)C(=O)N[C@H]3c4cc5c(cc4[C@@H](c4cc(OC)c(OC)c(OC)c4)[C@H]4C(=O)OC[C@@H]43)OCO5)c2c1
pIC50 [13]: 5.71
pIC50 [14]: 5.71

COc1cc([C@@H]2c3cc4c(cc3[C@H](OC(=O)c3c[nH]c5ccccc35)[C@H]3COC(=O)[C@H]23)OCO4)cc(OC)c1OC
pIC50 [13]: 5.66

Cc1cc(=O)oc2cc(/N=C3/S/C(=C\c4c[nH]c5ccccc45)C(=O)N3CCO)ccc12
MIC [15]: 0.25 µg/mL
MIC [16]: 0.25 µg/mL
MIC [17]: 0.25 µg/mL (≈ 0.561 µM)
MIC [18]: 0.25 µg/mL
MIC [19]: 0.25 µg/mL (≈ 0.561 µM)
MIC [20]: 0.25 µg/mL (≈ 0.561 µM)

COc1cc([C@@H]2c3cc4c(cc3[C@H](NC(=O)C(=O)c3c[nH]c5ccc(C(=O)NC(C)C)cc35)[C@H]3COC(=O)[C@H]23)OCO4)cc(OC)c1OC
pIC50 [13]: 5.41

C[C@@H]1CC[C@H]2[C@@H](C)C(OC(=O)c3cc4ccccc4[nH]3)O[C@@H]3O[C@@]4(C)CC[C@@H]1[C@]32OO4 (some centres undefined)
pIC50 [7]: 4.89
pIC50 [8]: 5.17

COc1ccc(OC)c(-c2nc(C(=O)N[C@H]3c4cc5c(cc4[C@@H](c4cc(OC)c(OC)c(OC)c4)[C@H]4C(=O)OC[C@@H]43)OCO5)cc3c2[nH]c2ccccc23)c1
pIC50 [21]: 5.73

CCOC(=O)c1[nH]c2ccccc2c1/C=C/C(=O)c1cc(OC)c(OC)c(OC)c1
pIC50 [22]: 5.74
pIC50 [23]: 6.36
pIC50 [24]: 5.68

COC(=O)[C@]1(C)CC[C@]2(C)CC[C@]3(C)C4=CC(c5c[nH]c6cc(C)ccc56)=C5C(=CC(OC)C(OC)=C5C)[C@]4(C)CC[C@@]3(C)[C@@H]2C1 (some centres undefined)
pIC50 [25]: 7.70

O=C1O[C@H]([C@@H](O)CO)C(O)=C1O [ASCORBIC ACID]
pEC50 [26]: 4.64

COc1ccc2c(/C=N/[C@H]3c4cc5c(cc4[C@@H](c4cc(OC)c(OC)c(OC)c4)[C@H]4C(=O)OC[C@@H]43)OCO5)cn(Cc3ccccc3F)c2c1
pIC50 [13]: 6.10

CC1(C)CCC(C)(C)c2cc(C(=O)/C=C/c3c[nH]c4ccccc34)ccc21
pIC50 [27]: > 8.00
pIC50 [28]: > 8.00

CCn1cc(C(=O)O)c(=O)c2cc(F)c(N3CCNCC3)cc21 [NORFLOXACIN]
MIC [15]: 2 µg/mL
MIC [16]: 4 µg/mL
MIC [17]: 4 µg/mL (≈ 12.5 µM)
MIC [18]: 4 µg/mL
MIC [19]: 2 µg/mL (≈ 6.26 µM)
MIC [20]: 2 µg/mL (≈ 6.26 µM)

C=C1C(=O)O[C@H]2[C@H]1CC1C(COC(=O)/C=C/c3c[nH]c4ccccc34)=CCC[C@@]3(C)O[C@@]123 (some centres undefined)
GI50 [29]: 70 nM
GI50 [30]: 30 nM

GENTAMICIN
MIC [31]: 27 µg/mL
MIC [32]: 28 µg/mL
MIC [33]: 26 µg/mL
MIC [34]: 27 µg/mL
MIC [35]: 26 µg/mL
MIC [36]: 28 µg/mL
MIC [37]: 26 µg/mL
